This is an account of results in patent US9371294B2, “Cycloalkenyl aryl derivatives for CETP inhibitor” (CHONG KUN DANG PHARMACEUTICAL CORP., priority 2011, dated 2016).

The target in this assay is T1, cholesteryl ester transfer protein (Homo sapiens, UniProt P11597).
T1 construct: As a source of cholesteryl ester transfer protein, plasma from healthy humans was used; from tissue; host or cells: plasma from healthy humans
T1 sequence (P11597 18-493): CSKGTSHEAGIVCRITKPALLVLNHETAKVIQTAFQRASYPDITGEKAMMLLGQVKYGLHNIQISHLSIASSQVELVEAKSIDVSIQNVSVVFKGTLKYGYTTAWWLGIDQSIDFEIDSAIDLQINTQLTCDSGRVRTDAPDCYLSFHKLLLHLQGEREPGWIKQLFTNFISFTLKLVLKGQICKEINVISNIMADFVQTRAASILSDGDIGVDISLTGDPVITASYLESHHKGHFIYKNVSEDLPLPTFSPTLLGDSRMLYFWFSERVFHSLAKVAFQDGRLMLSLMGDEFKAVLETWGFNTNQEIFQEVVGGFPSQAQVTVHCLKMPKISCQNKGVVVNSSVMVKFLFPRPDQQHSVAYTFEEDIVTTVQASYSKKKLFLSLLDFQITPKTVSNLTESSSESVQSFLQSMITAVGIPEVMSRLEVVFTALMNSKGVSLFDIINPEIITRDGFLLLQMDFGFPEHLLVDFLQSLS
Briefly: In vitro test for the ability to inhibit cholesteryl ester transfer. The settings on record: [3H]-cholesteryl oleate transfer from rHDL-agarose to LDL; human plasma as CETP source; 37° C.; 16-10000 nM, duplicate. The class given is biochemical. The source says:
In Vitro Test for the Ability to Inhibit Cholesteryl Ester Transfer
1. Preparation of Cholesteryl Ester Donor
In order to prepare a cholesteryl ester donor to be used in the test, a radiolabeled recombinant HDL containing [^3H]-cholesteryl oleate (GE healthcare, TRK886, 3.5 μCi/mg of apoA-1) and apoA-1 was synthesized. Then, rHDL-agarose obtained by immobilizing the recombinant HDL with CNBr-activated Sepharose 4B resin (Amersham Biosciences, Sweden) was used in the test.
2. Cholesteryl Ester Transfer Test
As a source of cholesteryl ester transfer protein, plasma from healthy humans was used, and as cholesteryl ester receptor, LDL from healthy humans was used. Each of test compounds was added to be final concentrations of 16, 80, 400, 2000 and 10000 nM and tested in duplicate. In order to test cholesteryl ester transfer, 20 μl of plasma, 50 μl of LDL (0.25 mg/ml) and 50 μl of rHDL-agarose (0.25 mg/ml) were mixed with each other, and a solution of each test compound was added thereto and reacted thereto at 37° C. Then, the reaction solution was centrifuged at 4° C. for 3 minutes, thereby the reaction was stopped. 150 μl of the supernatant was transferred into a 96-well plate for radioactivity measurement, and the radioactivity thereof was measured with a beta-ray detector.
3. Statistical Processing
The ratio of [^3H]-cholesteryl oleate transferred from HDL to LDL was determined, and based on the determined ratio, the IC50 value of each compound was determined using GraphPad Prism 5.0.

For orientation: IC50 means the concentration that gives 50% inhibition. A lower IC50 goes with inhibition by little substance. Compound `COc1cc(F)c(CC(C)(C)C(N)=O)cc1C1=C(CN2C(=O)O[C@H](c3cc(C(F)(F)F)cc(C(F)(F)F)c3)[C@@H]2C)CC(C)(C)CC1` [Compound 329, 3-(5-(2-(((4S,5R)-5-(3,5-bis(trifluoromethyl)phenyl)-4-methyl-2-oxooxazolidin-3-yl)methyl)-4,4-dimethylcyclohex-1-enyl)-2-fluoro-4-methoxyphenyl)-2,2-dimethylpropanamide] gave an IC50 of 9 nM.

`COc1ccc(CC(C)(C)c2nn[nH]n2)cc1C1=C(CN2C(=O)O[C@H](c3cc(C(F)(F)F)cc(C(F)(F)F)c3)[C@@H]2C)CC(C)(C)CC1` [Compound 340, (4S,5R)-5-(3,5-bis(trifluoromethyl)phenyl)-3-((2-(2-methoxy-5-(2-methyl-2-(2H-tetrazol-5-yl)propyl)phenyl)-5,5-dimethylcyclohex-1-enyl)methyl)-4-methyloxazolidin-2-one] came in with an IC50 of 8 nM.

`COc1ccc([N+](=O)[O-])cc1C1=C(CN2C(=O)O[C@H](c3cc(C(F)(F)F)cc(C(F)(F)F)c3)[C@@H]2C)CC(C(F)(F)F)CC1` (stereo partly drawn) [Compound 194, (4S,5R)-5-(3,5-bis(trifluoromethyl)phenyl)-3-((2-(2-methoxy-5-nitrophenyl)-5-(trifluoromethyl)cyclohex-1-enyl)methyl)-4-methyloxazolidin-2-one]: the IC50 stood at 100 nM.

`COc1cc(F)c(C(=O)C(F)(F)F)cc1C1=C(CN2C(=O)O[C@H](c3cc(C(F)(F)F)cc(C(F)(F)F)c3)[C@@H]2C)CC(C)(C)CC1` [Compound 191, (4S,5R)-5-(3,5-bis(trifluoromethyl)phenyl)-3-((2-(4-fluoro-2-methoxy-5-(2,2,2-trifluoroacetyl)phenyl)-5,5-dimethylcyclohex-1-enyl)methyl)-4-methyloxazolidin-2-one] displayed an IC50 of 90 nM.

Take `COC(=O)N(C)c1ccc(OC)c(C2=C(CN3C(=O)O[C@H](c4cc(C(F)(F)F)cc(C(F)(F)F)c4)[C@@H]3C)CC(C)(C)CC2)c1` [Compound 124, methyl 3-(2-(((4S,5R)-5-(3,5-bis(trifluoromethyl)phenyl)-4-methyl-2-oxooxazolidin-3-yl)methyl)-4,4-dimethylcyclohex-1-enyl)-4-methoxyphenyl(methyl)carbamate]: the IC50 worked out at 20 nM.

As for `COc1ccc(NC(C)=O)cc1C1=C(CN2C(=O)O[C@H](c3cc(C(F)(F)F)cc(C(F)(F)F)c3)[C@@H]2C)CC(C)(C)CC1` [Compound 110, N-(3-(2-(((4S,5R)-5-(3,5-bis(trifluoromethyl)phenyl)-4-methyl-2-oxooxazolidin-3-yl)methyl)-4,4-dimethylcyclohex-1-enyl)-4-methoxyphenyl)acetamide], the IC50 came out at 230 nM.

`COc1ccc(C(C)C)cc1C1=C(CN2C(=O)O[C@H](c3cc(C(F)(F)F)cc(C(F)(F)F)c3)[C@@H]2C)CCC(C)(C)C1` [Compound 44, (4S,5R)-5-(3,5-bis(trifluoromethyl)phenyl)-3-((2-(5-isopropyl-2-methoxyphenyl)-4,4-dimethylcyclohex-1-enyl)methyl)-4-methyloxazolidin-2-one] yielded an IC50 of 430 nM.

`COc1ccc(CCC(=O)O)cc1C1=C(CN2C(=O)O[C@H](c3cc(C(F)(F)F)cc(C(F)(F)F)c3)[C@@H]2C)CC(C)(C)CC1` [Compound 273, 3-(3-(2-(((4S,5R)-5-(3,5-bis(trifluoromethyl)phenyl)-4-methyl-2-oxooxazolidin-3-yl)methyl)-4,4-dimethylcyclohex-1-enyl)-4-methoxyphenyl)propanoic acid]: the IC50 is 217 nM.

`COc1ccc(C(C)(C)O)cc1C1=C(CN2C(=O)O[C@H](c3cc(C(F)(F)F)cc(C(F)(F)F)c3)[C@@H]2C)CC(C)(C)CC1` [Compound 104, (4S,5R)-5-(3,5-bis(trifluoromethyl)phenyl)-3-((2-(5-(2-hydroxypropan-2-yl)-2-methoxyphenyl)-5,5-dimethylcyclohex-1-enyl)methyl)-4-methyloxazolidin-2-one] registered a concentration for half-maximal inhibition (IC50) of 180 nM.

The compound `COc1cc(F)c(C(C)C)cc1C1=C(CN2C(=O)O[C@H](c3cc(C(F)(F)F)cc(C(F)(F)F)c3)[C@@H]2C)CCCC1` [Compound 27, (4S,5R)-5-(3,5-bis(trifluoromethyl)phenyl)-3-((2-(4-fluoro-5-isopropyl-2-methoxyphenyl)cyclohex-1-enyl)methyl)-4-methyloxazolidin-2-one] yielded an IC50 of 240 nM.

`COc1ccc(C(F)(F)F)cc1C1=C(CN2C(=O)O[C@H](c3cc(C(F)(F)F)cc(C(F)(F)F)c3)[C@@H]2C)CC(C(F)(F)F)CC1` (stereo partly drawn) [Compound 193, (4S,5R)-5-(3,5-bis(trifluoromethyl)phenyl)-3-((2-(2-methoxy-5-(trifluoromethyl)phenyl)-5-(trifluoromethyl)cyclohex-1-enyl)methyl)-4-methyloxazolidin-2-one] showed an IC50 of 40 nM.

Compound `COc1cc(C(F)(F)F)c(N(C)S(=O)(=O)C(F)(F)F)cc1C1=C(CN2C(=O)O[C@H](c3cc(C(F)(F)F)cc(C(F)(F)F)c3)[C@@H]2C)CC(C)(C)CC1` [Compound 209, N-(5-(2-(((4S,5R)-5-(3,5-bis(trifluoromethyl)phenyl)-4-methyl-2-oxooxazolidin-3-yl)methyl)-4,4-dimethylcyclohex-1-enyl)-4-methoxy-2-(trifluoromethyl)phenyl)trifluoro-N-methylmethanesulfonamide] displayed an IC50 of 10 nM.

As for `COc1cc(F)c(C(C)C)cc1C1=C(CN2C(=O)O[C@H](c3cc(C(F)(F)F)cc(C(F)(F)F)c3)[C@@H]2C)CN(C)CC1` [Compound 231, (4S,5R)-5-(3,5-bis(trifluoromethyl)phenyl)-3-((4-(4-fluoro-5-isopropyl-2-methoxyphenyl)-1-methyl-1,2,5,6-tetrahydropyridin-3-yl)methyl)-4-methyloxazolidin-2-one], the midpoint of inhibition, the IC50, lay at 700 nM.

On to `COc1cc(C)c(N(C)S(=O)(=O)C(F)(F)F)cc1C1=C(CN2C(=O)O[C@H](c3cc(C(F)(F)F)cc(C(F)(F)F)c3)[C@@H]2C)CC(C)(C)CC1` [Compound 251, N-(5-(2-(((4S,5R)-5-(3,5-bis(trifluoromethyl)phenyl)-4-methyl-2-oxooxazolidin-3-yl)methyl)-4,4-dimethylcyclohex-1-enyl)-4-methoxy-2-methylphenyl)trifluoro-N-methylmethanesulfonamide], for which half-maximal inhibition (IC50) required 690 nM.

For the compound `COc1cc(F)c(C(C)C)cc1C1=C(CN2C(=S)O[C@H](c3cc(C(F)(F)F)cc(C(F)(F)F)c3)[C@@H]2C)CC(C)(C)CC1` [Compound 17, (4S,5R)-5-(3,5-bis(trifluoromethyl)phenyl)-3-((2-(4-fluoro-5-isopropyl-2-methoxyphenyl)-5,5-dimethylcyclohex-1-enyl)methyl)-4-methyloxazolidine-2-thione], the IC50 was determined as 510 nM.

As to `COc1cc(F)c(N(C)C(C)=O)cc1C1=C(CN2C(=O)O[C@H](c3cc(C(F)(F)F)cc(C(F)(F)F)c3)[C@@H]2C)CC(C)(C)CC1` [Compound 215, N-(5-(2-(((4S,5R)-5-(3,5-bis(trifluoromethyl)phenyl)-4-methyl-2-oxooxazolidin-3-yl)methyl)-4,4-dimethylcyclohex-1-enyl)-2-fluoro-4-methoxyphenyl)-N-methylacetamide], the IC50 was found to be 20 nM.

Turning to `COc1ncc(CC(C)(C)C(=O)O)cc1C1=C(CN2C(=O)O[C@H](c3cc(C(F)(F)F)cc(C(F)(F)F)c3)[C@@H]2C)CC(C)(C)CC1` [Compound 350, 3-(5-(2-(((4S,5R)-5-(3,5-bis(trifluoromethyl)phenyl)-4-methyl-2-oxooxazolidin-3-yl)methyl)-4,4-dimethylcyclohex-1-enyl)-6-methoxypyridin-3-yl)-2,2-dimethylpropanoic acid], inhibition was half-maximal at 51 nM (IC50).

`COC(=O)CCc1ccc(OC)c(C2=C(CN3C(=O)O[C@H](c4cc(C(F)(F)F)cc(C(F)(F)F)c4)[C@@H]3C)CC(C)(C)CC2)c1` [Compound 272, methyl 3-(3-(2-(((4S,5R)-5-(3,5-bis(trifluoromethyl)phenyl)-4-methyl-2-oxooxazolidin-3-yl)methyl)-4,4-dimethylcyclohex-1-enyl)-4-methoxyphenyl)propanoate] had an IC50 of 222 nM.

In turn, `COc1ccc(Cl)cc1C1=C(CN2C(=O)O[C@H](c3cc(C(F)(F)F)cc(C(F)(F)F)c3)[C@@H]2C)CC(C)(C)CC1` [Compound 353, (4S,5R)-5-(3,5-bis(trifluoromethyl)phenyl)-3-((2-(5-chloro-2-methoxyphenyl)-5,5-dimethylcyclohex-1-enyl)methyl)-4-methyloxazolidin-2-one] yielded an IC50 of 30 nM.
